# Results taken from patent publication US20230183323A1 (BROWN UNIVERSITY, priority 2020, published 2023).
# Tested on: pseudovirus containing S protein mutations D614G, E484K, United Kingdom, South African, Brazilian
# Assay type: cell-based, SARS-CoV-2
substance,measurement,value
rhCHI3L1: recombinant human CHI3L1 from a commercial source (R&D Inc.) or generated at Brown University,"cellular integration of Spike proteins of SARS-Cov2 (% of GFP positive cells, FACS)",stimulated
